US20250388575A1, “HETEROBIFUNCTIONAL COMPOUNDS AND METHODS OF TREATING DISEASE” (Halda Therapeutics OpCo, Inc., priority 2022, published 2025)
Like-named read-outs stand apart in the source and are kept apart here.

What was measured:
BRD4-BD1 = BRD4-BD1 (Homo sapiens (Human), UniProt O60885); test: bromoKdELECT assay for binding affinity to BRD4-BD1; details: 11-point 3-fold dilution
Experimental: (§1) Compounds were tested using a bromoKdELECT assay. T7 phage strains displaying bromodomains were grown in parallel in 24-well blocks in an E. coli host derived from the BL21 strain. E. coli were grown to log-phase and infected with T7 phage from a frozen stock (multiplicity of infection=0.4) and incubated with shaking at 32° C. until lysis (90-150 minutes). The lysates were centrifuged (5,000×g) and filtered (0.2 μm) to remove cell debris. Streptavidin-coated magnetic beads were treated with biotinylated small molecule or acetylated peptide ligands for 30 minutes at room temperature to generate affinity resins for bromodomain assays. The liganded beads were blocked with excess biotin and washed with blocking buffer (SeaBlock (Pierce), 1% BSA, 0.05% Tween 20, 1 mM DTT) to remove unbound ligand and to reduce nonspecific phage binding. Binding reactions were assembled by combining bromodomains, liganded affinity beads, and test compounds in 1× binding buffer (17% SeaBlock, 0.33×PBS, 0.04% Tween 20, 0.02% BSA, 0.004% Sodium azide, 7.4 mM DTT). Test compounds were prepared as 1000× stocks in 100% DMSO. Kds were determined using an 11-point 3-fold compound dilution series with one DMSO control point. All compounds for Kd measurements are distributed by acoustic transfer (non-contact dispensing) in 100% DMSO. The compounds were then diluted directly into the assays such that the final concentration of DMSO was 0.09%. All reactions performed in polypropylene 384-well plates. Each was a final volume of 0.02 ml. The assay plates were incubated at room temperature with shaking for 1 hour and the affinity beads were washed with wash buffer (1×PBS, 0.05% Tween 20). The beads were then resuspended in elution buffer (1×PBS, 0.05% Tween 20, 2 μM non-biotinylated affinity ligand) and incubated at room temperature with shaking for 30 minutes. The bromodomain concentration in the eluates was measured by qPCR.

BRD4-BD2 = BRD4-BD2 (Homo sapiens (Human), UniProt O60885); test: bromoKdELECT assay for binding affinity to BRD4-BD2; details: 11-point 3-fold dilution
Experimental: as §1

[1] = tested on: T-Rex 293 cell line SC3 cells having increased expression of androgen receptor protein; test: Cellular growth inhibition, T-Rex 293 SC3 cells with increased androgen receptor expression (doxycycline), CellTiter-Glo; assay type: cell-based; details: T-Rex 293 SC3 cells with increased androgen receptor expression (exposed to 10 ng/mL doxycycline), 72 hours, CellTiter-Glo; read-out: GI50
In short: (§2)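 SC3, a T-Rex 293 clone with doxycycline-inducible wild-type androgen receptor, was seeded in phenol red-free DMEM with 10% charcoal-dextran FBS, with or without 10 ng/mL doxycycline. Compound added at 24 h (0.5% DMSO) for 72 h at 37° C. CellTiter-Glo 2.0 luminescence; GI50 from four-parameter fit.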

[2] = tested on: T-Rex 293 cell line SC3 cells lacking increased expression of androgen receptor protein; test: Cellular growth inhibition, T-Rex 293 SC3 cells lacking increased androgen receptor expression (no doxycycline), CellTiter-Glo; assay type: cell-based; details: T-Rex 293 SC3 cells lacking increased androgen receptor expression (not exposed to doxycycline), 72 hours, CellTiter-Glo; read-out: GI50
In short: as §2

VCaP cells = test: Cellular growth inhibition assay for VCaP cells, CellTiter-Glo; assay type: cell-based, human; details: VCaP cells, 72 hours, CellTiter-Glo, read-out: GI50
In short: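 GI50 values come from four-parameter curve fits of luminescence data normalized to a zero baseline. Compound, in medium with 0.5% DMSO, was added one day after plating and left for 72 h before CellTiter-Glo 2.0 addition.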

T47D cells = test: Cellular growth inhibition assay for T47D cells, CellTiter-Glo; assay type: cell-based, human; details: 72 hours treatment, CellTiter-Glo 2.0
In short: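 Luminescence from CellTiter-Glo 2.0 after 72 h of compound exposure gives the viability signal. Cells grew in insulin-supplemented (0.2 units/mL) DMEM with 10% FBS and were treated one day after seeding at 0.5% DMSO. GI50 values come from four-parameter nonlinear regression.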

Row | Kd (BRD4-BD1) [nM] | Kd (BRD4-BD2) [nM] | GI50 (VCaP cells) [nM] | GI50 (T47D cells) [nM] | GI50 (VCaP cells; Homo sapiens) [nM] | GI50 (T47D cells; Homo sapiens) [nM] | SMILES | GI50 [1] [nM] | GI50 [2] [nM]
1 | 500 to 2500 | 500 to 2500 | < 500 | – | – | – | CCS(=O)(=O)Cc1ccc(Oc2ccc(CCC3CCN(c4ccc(C(=O)NC5CCC(Oc6ccc(C#N)c(Cl)c6)CC5)nn4)CC3)cc2)c(-c2cn(C)c(=O)c3[nH]ccc23)c1 (centres unmarked) [I-154, N-[4-(3-chloro-4-cyano-phenoxy)cyclohexyl]-6-[4-[2-[4-[4-(ethylsulfonylmethyl)-2-(6-methyl-7-oxo-1H-pyrrolo[2,3-c]pyridin-4-yl)phenoxy]phenyl]ethyl]-1-piperidyl]pyridazine-3-carboxamide] | < 500 | < 500
2 | > 2500 | > 2500 | < 500 | < 500 | – | – | CCS(=O)(=O)c1ccc(Oc2ccc(CCC3CCN(c4ccc(C(=O)N[C@H]5CC[C@H](Oc6ccc(C#N)c(Cl)c6)CC5)nn4)CC3)c(F)c2)c(-c2cn(C)c(=O)c3[nH]ccc23)c1 [I-54] | < 500 | < 500
3 | 50 to 500 | 50 to 500 | < 500 | < 500 | – | – | CCS(=O)(=O)c1ccc(Oc2ccc(CCC3CCN(c4ccc(C(=O)N[C@H]5CC[C@H](Oc6ccc(C#N)c(Cl)c6)CC5)nn4)CC3)cc2)c(-c2cn(C)c(=O)c3[nH]ccc23)c1 [I-50] | < 500 | < 500
4 | 500 to 2500 | 500 to 2500 | < 500 | < 500 | – | – | CCS(=O)(=O)c1ccc(Oc2cccc(OCCC3CCN(c4ccc(C(=O)N[C@H]5CC[C@H](Oc6ccc(C#N)c(Cl)c6)CC5)nn4)CC3)c2F)c(-c2cn(C)c(=O)c3[nH]ccc23)c1 [I-42] | < 500 | < 500
5 | 500 to 2500 | 500 to 2500 | – | – | < 500 | – | CCS(=O)(=O)c1ccc(Oc2cccc(OCCCC3CCN(c4ccc(C(=O)N[C@H]5CC[C@H](Oc6ccc(C#N)c(Cl)c6)CC5)nn4)CC3)c2F)c(-c2cn(C)c(=O)c3[nH]ccc23)c1 [I-15] | < 500 | < 500
6 | 50 to 500 | 50 to 500 | < 500 | < 500 | – | – | CCS(=O)(=O)c1ccc(Oc2ccc(CCC3CCN(c4ccc(C(=O)N[C@H]5CC[C@H](Oc6ccc(C#N)c(Cl)c6)CC5)nn4)CC3)nc2)c(-c2cn(C)c(=O)c3[nH]ccc23)c1 [I-219] | < 500 | < 500

The next lines start with the compound.

Row | SMILES | Kd (BRD4-BD1) [nM] | Kd (BRD4-BD2) [nM] | GI50 (VCaP cells) [nM] | GI50 (T47D cells) [nM] | GI50 (VCaP cells; Homo sapiens) [nM] | GI50 (T47D cells; Homo sapiens) [nM] | GI50 [1] [nM] | GI50 [2] [nM]
7 | CCS(=O)(=O)Nc1ccc(Oc2ccc(CCC3CCN(c4ccc(C(=O)N[C@H]5CC[C@H](Oc6ccc(C#N)c(Cl)c6)CC5)nn4)CC3)cc2)c(-c2cn(C)c(=O)c3[nH]ccc23)c1 [I-38] | 500 to 2500 | 500 to 2500 | < 500 | < 500 | – | – | < 500 | < 500
8 | CCS(=O)(=O)Nc1ccc(Oc2cccc(OCCOCCOCCOCCOCCOC3CCN(c4ccc(C(=O)N[C@H]5CC[C@H](Oc6ccc(C#N)c(Cl)c6)CC5)nn4)CC3)c2)c(-c2cn(C)c(=O)c3[nH]ccc23)c1 [I-3, N-[4-(3-chloro-4-cyano-phenoxy)cyclohexyl]-6-[4-[2-[2-[2-[2-[2-[3-[4-(ethylsulfonylamino)-2-(6-methyl-7-oxo-1H-pyrrolo[2,3-c]pyridin-4-yl)phenoxy]phenoxy]ethoxy]ethoxy]ethoxy]ethoxy]ethoxy]-1-piperidyl]pyridazine-3-carboxamide] | < 50 | < 50 | – | – | < 500 | – | < 500 | > 3000
9 | CCS(=O)(=O)Cc1ccc(Oc2cccc(CCCOC3CCN(c4ccc(C(=O)N[C@H]5CC[C@H](Oc6ccc(C#N)c(Cl)c6)CC5)nn4)CC3)c2F)c(-c2cn(C)c(=O)c3[nH]ccc23)c1 [I-29] | 50 to 500 | 50 to 500 | – | – | < 500 | – | < 500 | < 500
10 | CCS(=O)(=O)c1ccc(Oc2cccc(CCN3CCN(c4ccc(C(=O)N[C@H]5CC[C@H](Oc6ccc(C#N)c(Cl)c6)CC5)nn4)CC3)c2F)c(-c2cn(C)c(=O)c3[nH]ccc23)c1 [I-55] | < 50 | < 50 | – | – | < 500 | < 500 | < 500 | < 500
11 | CCS(=O)(=O)c1ccc(Oc2ccc(COC3CCN(c4ccc(C(=O)N[C@H]5CC[C@H](Oc6ccc(C#N)c(Cl)c6)CC5)nn4)CC3)c(F)c2F)c(-c2cn(C)c(=O)c3[nH]ccc23)c1 [I-53] | > 2500 | > 2500 | < 500 | < 500 | – | – | < 500 | < 500
12 | Cn1cc(-c2cc(C(C)(C)O)ccc2Oc2cc(F)c(CCOC3CCN(c4ccc(C(=O)N[C@H]5CC[C@H](Oc6ccc(C#N)c(Cl)c6)CC5)nn4)CC3)c(F)c2)c2cc[nH]c2c1=O [I-110] | > 2500 | > 2500 | – | – | < 500 | 1500 to 3000 | < 500 | 500 to 1500
13 | CCS(=O)(=O)c1ccc(Oc2ccc(N3CC4(CCN(c5ccc(C(=O)NC6CCC(Oc7ccc(C#N)c(Cl)c7)CC6)nn5)CC4)C3)cc2)c(-c2cn(C)c(=O)c3[nH]ccc23)c1 (centres unmarked) [I-90, N-[4-(3-chloro-4-cyano-phenoxy)cyclohexyl]-6-[2-[4-[4-ethylsulfonyl-2-(6-methyl-7-oxo-1H-pyrrolo[2,3-c]pyridin-4-yl)phenoxy]phenyl]-2,7-diazaspiro[3.5]nonan-7-yl]pyridazine-3-carboxamide] | 50 to 500 | 50 to 500 | – | – | < 500 | < 500 | < 500 | < 500
14 | CCS(=O)(=O)c1ccc(Oc2ccc(CN3CC4(CCN(c5ccc(C(=O)N[C@H]6CC[C@H](Oc7ccc(C#N)c(Cl)c7)CC6)nn5)CC4)C3)cc2)c(-c2cn(C)c(=O)c3[nH]ccc23)c1 [I-57] | < 50 | < 50 | – | – | < 500 | < 500 | < 500 | < 500
15 | CN(c1ccc(Oc2ccc(C(C)(C)O)cc2-c2cn(C)c(=O)c3[nH]ccc23)cc1)C1CCN(c2ccc(C(=O)N[C@H]3CC[C@H](Oc4ccc(C#N)c(Cl)c4)CC3)nn2)CC1 [I-137, N-[4-(3-chloro-4-cyano-phenoxy)cyclohexyl]-6-[4-[4-[4-(1-hydroxy-1-methyl-ethyl)-2-(6-methyl-7-oxo-1H-pyrrolo[2,3-c]pyridin-4-yl)phenoxy]-N-methyl-anilino]-1-piperidyl]pyridazine-3-carboxamide] | 50 to 500 | 50 to 500 | – | – | < 500 | < 500 | < 500 | > 3000
16 | CCS(=O)(=O)c1ccc(Oc2ccc(CN3CC4(C3)CN(c3ccc(C(=O)N[C@H]5CC[C@H](Oc6ccc(C#N)c(Cl)c6)CC5)nn3)C4)cc2)c(-c2cn(C)c(=O)c3[nH]ccc23)c1 [I-56] | < 50 | < 50 | – | – | < 500 | < 500 | < 500 | < 500
17 | Cn1cc(-c2cc(C(C)(C)O)ccc2Oc2ccc(CCC3CCN(c4ccc(C(=O)N[C@H]5CC[C@H](Oc6ccc(C#N)c(Cl)c6)CC5)nn4)CC3)cc2F)c2cc[nH]c2c1=O [I-111] | > 2500 | > 2500 | < 500 | < 500 | – | – | < 500 | > 3000
